Article PMC8764613, “Engineering of CYP153A33 With Enhanced Ratio of Hydroxylation to Overoxidation Activity in Whole-Cell Biotransformation of Medium-Chain 1-Alkanols” (Frontiers in Bioengineering and Biotechnology, 2022)

Biological target: T1, CYP153A33 (Marinobacter nauticus, UniProt A1TY82)
T1 construct: gene Maqu_0600; co-expressed with P. putida CamA/CamB and E. coli FadL in E. coli BW25113(DE3) delta-fadD; with Putidaredoxin (Pseudomonas putida); Putidaredoxin reductase CamA (Pseudomonas putida)
T1 sequence (A1TY82 1-470): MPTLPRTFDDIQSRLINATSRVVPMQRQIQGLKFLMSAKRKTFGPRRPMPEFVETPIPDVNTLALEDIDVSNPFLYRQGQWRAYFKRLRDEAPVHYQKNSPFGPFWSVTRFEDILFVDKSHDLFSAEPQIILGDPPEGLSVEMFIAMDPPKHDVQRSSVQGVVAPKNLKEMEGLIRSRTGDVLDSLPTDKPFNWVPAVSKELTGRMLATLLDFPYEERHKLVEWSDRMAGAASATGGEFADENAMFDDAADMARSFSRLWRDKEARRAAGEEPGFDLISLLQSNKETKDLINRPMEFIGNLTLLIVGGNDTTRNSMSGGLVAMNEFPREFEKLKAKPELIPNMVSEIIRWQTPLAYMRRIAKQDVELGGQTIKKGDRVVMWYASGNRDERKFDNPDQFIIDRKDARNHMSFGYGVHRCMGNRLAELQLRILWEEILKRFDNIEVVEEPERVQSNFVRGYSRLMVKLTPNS
Test: whole-cell biotransformation, GC analysis of products
Assay type: cell-based
Settings: 10 mM substrate, pH 7.0, 30 °C, resting E. coli cells OD600 30 with 1% glucose, CamA/CamB and FadL co-expressed; product alpha,omega-dodecanediol

**Q.** How did the “whole-cell biotransformation, GC analysis of products” value turn out when `CCCCCCCCCCCCO` [A, 1-dodecanol] was run?
**A.** CYP153A33-encoding gene was co-expressed with CamAB redox proteins for the whole-cell biotransformation of 1-dodecanol
